No end group written: not given here.
Tested on: IgG of sera from MS patients and healthy individuals
Assay: ELISA of biotinylated synthetic peptides, IgG response of individual human sera
Type: binding
Conditions: for MEAN / OD 1 / OD 2 / OD 3 / BASELINE (mark: above cut-off): 1/100
Protocol: Depending on the information obtained from the preceding examples, the hexapeptides SEQ ID NO: 3 and SEQ ID NO: 4 were synthesized and biotinylated according to the method described in Patent Application No. EP 93420183 with the following modifications: the peptide still bound to the resin is selectively deprotected at the N-terminal position. After overnight incubation with the biotin-NHS at 50% in DMF, the peptide is then cleaved from the resin and treated as described in the patent cited above.
The wells of a Maxisorb (trade name, Nunc) microtiter plate are saturated with 100 μl of a 50 mM NaHCO3 solution, pH 9.6, containing 10 μg/ml of streptavidin for 2 hours at 37° C. The plate is washed with TBS/0.05% Tween 20 buffer. The wells are then saturated with 250 μl of wash buffer supplemented with 10% goat serum for 1 hour at 37° C. and then washed as described above.
The sera to be analyzed are diluted 1/100 in saturation buffer, supplemented with 0.05% Tween 20 and incubated for 2 hours at 37° C. After washing, a solution of peroxidase-labeled anti-human immunoglobulin G goat antibody conjugate (marketed by Jackson Immuno Research Laboratories Inc.) is added at the dilution of 1/10,000 and the plates are incubated for 1 hour at 37° C. After washes, the ortho-phenylenediamine (OPD) substrate is added and the reaction is stopped after 10 minutes by adding 50 μl of H2SO4. The optical density is read at 492 nm.
In a test carried out with 1/100 dilutions of 11 English sera from MS patients at the remission stage and 4 negative English sera, the peptides SEQ ID NOs: 3 and 4 are recognized by 4 sera out of 11 which give a positive IgG signal compared with the negative serum which gave the highest signal.

[1] = IgG, serum 33/6 (MS+, remission)
[2] = IgG, serum 33/8 (MS+, remission)
[3] = IgG, serum 33/18 (MS+, remission)
[4] = IgG, serum No. 12 (MS−, healthy)
[5] = IgG, serum No. 13 (MS−, healthy)
[6] = IgG, serum No. 14 (MS−, healthy)
[7] = IgG, serum No. 15 (MS−, healthy)
[8] = IgG, serum QS 2 (MS+, remission)
[9] = IgG, serum QS 3 (MS+, remission)
[10] = IgG, serum QS 4 (MS+, remission)
[11] = IgG, serum QS 6 (MS+, remission)
[12] = IgG, serum QS 7 (MS+, remission)
[13] = IgG, serum QS 8 (MS+, remission)
[14] = IgG, serum QS 11 (MS+, remission)
[15] = IgG, serum QS 12 (MS+, remission)

Substance: STGRPL [SEQ ID NO: 4]
- MS sera giving a positive IgG signal compared with the negative serum which gave the highest signal (1/100 dilutions of 11 sera from MS patients at the remission stage, 4 negative sera): 4 sera out of 11
- MS sera recognizing the peptide significantly, cut-off mean of negative sera plus 3 times the standard deviation (IgG, 1/100 dilutions of 11 MS remission sera, 4 negative sera): 3 sera out of 11
- BASELINE (IgG, cut-off, mean of negative sera plus 3 times the standard deviation): 674 optical density (×1000)
- MEAN [1]: 496 optical density (×1000)
- OD 1 [1]: 465 optical density (×1000)
- OD 2 [1]: 496 optical density (×1000)
- OD 3 [1]: 525 optical density (×1000)
- BASELINE (mark: above cut-off) [2]: X (the mean of the values obtained with the negative sera is calculated and 3 times the standard deviation is added in order to determine a cut-off)
- MEAN [2]: 807 optical density (×1000)
- OD 1 [2]: 849 optical density (×1000)
- OD 2 [2]: 820 optical density (×1000)
- OD 3 [2]: 753 optical density (×1000)
- MEAN [3]: 267 optical density (×1000)
- OD 1 [3]: 258 optical density (×1000)
- OD 2 [3]: 243 optical density (×1000)
- OD 3 [3]: 299 optical density (×1000)
- MEAN [4]: 518 optical density (×1000)
- OD 1 [4]: 567 optical density (×1000)
- OD 2 [4]: 518 optical density (×1000)
- OD 3 [4]: 469 optical density (×1000)
- MEAN [5]: 271 optical density (×1000)
- OD 1 [5]: 286 optical density (×1000)
- OD 2 [5]: 278 optical density (×1000)
- OD 3 [5]: 268 optical density (×1000)
- MEAN [6]: 359 optical density (×1000)
- OD 1 [6]: 322 optical density (×1000)
- OD 2 [6]: 401 optical density (×1000)
- OD 3 [6]: 354 optical density (×1000)
- MEAN [7]: 442 optical density (×1000)
- OD 1 [7]: 423 optical density (×1000)
- OD 2 [7]: 432 optical density (×1000)
- OD 3 [7]: 470 optical density (×1000)
- MEAN [8]: 277 optical density (×1000)
- OD 1 [8]: 267 optical density (×1000)
- OD 2 [8]: 296 optical density (×1000)
- OD 3 [8]: 267 optical density (×1000)
- MEAN [9]: 624 optical density (×1000)
- OD 1 [9]: 668 optical density (×1000)
- OD 2 [9]: 618 optical density (×1000)
- OD 3 [9]: 585 optical density (×1000)
- BASELINE (mark: above cut-off) [10]: X (the mean of the values obtained with the negative sera is calculated and 3 times the standard deviation is added in order to determine a cut-off)
- MEAN [10]: 1026 optical density (×1000)
- OD 1 [10]: 1096 optical density (×1000)
- OD 2 [10]: 1120 optical density (×1000)
- OD 3 [10]: 862 optical density (×1000)
- MEAN [11]: 206 optical density (×1000)
- OD 1 [11]: 204 optical density (×1000)
- OD 2 [11]: 212 optical density (×1000)
- OD 3 [11]: 201 optical density (×1000)
- BASELINE (mark: above cut-off) [12]: X (the mean of the values obtained with the negative sera is calculated and 3 times the standard deviation is added in order to determine a cut-off)
- MEAN [12]: 1380 optical density (×1000)
- OD 1 [12]: 1379 optical density (×1000)
- OD 2 [12]: 1437 optical density (×1000)
- OD 3 [12]: 1323 optical density (×1000)
- MEAN [13]: 552 optical density (×1000)
- OD 1 [13]: 523 optical density (×1000)
- OD 2 [13]: 504 optical density (×1000)
- OD 3 [13]: 630 optical density (×1000)
- MEAN [14]: 269 optical density (×1000)
- OD 1 [14]: 272 optical density (×1000)
- OD 2 [14]: 273 optical density (×1000)
- OD 3 [14]: 261 optical density (×1000)
- MEAN [15]: 237 optical density (×1000)
- OD 1 [15]: 271 optical density (×1000)
- OD 2 [15]: 227 optical density (×1000)
- OD 3 [15]: 212 optical density (×1000)

Source: patent publication US6555091B1, “Polypeptide capable of reacting with antibodies of patients suffering from multiple sclerosis and uses” (Bio Merieux, priority 1997, dated 2003)
